Laboratory results from ChEMBL document CHEMBL1125587, “Synthesis and antiviral and cytostatic properties of 3'-deoxy-3'-fluoro- and 2'-azido-3'-fluoro-2',3'-dideoxy-D-ribofuranosides of natural heterocyclic bases” (J Med Chem, 1991).
Values after ≈ are worked out from the molar mass of the structure shown.

Experiments:
[1] = tested on: Vero; assay: Concentration (MIC), which is required to reduce virus-induced cytopathogenicity in HeLa cells of African green monkey kidney (Vero B) cells against RNA viruses including para-influenza virus-3; format: functional; conditions: Chlorocebus sabaeus
[2] = tested on: Vero; assay: Concentration (MIC), which is required to reduce virus-induced cytopathogenicity in African green monkey kidney (Vero B) cells against Sindbis virus; format: functional; conditions: Chlorocebus sabaeus
[3] = tested on: Vero; assay: Concentration (MCC) required to cause a microscopically detectable alteration of normal cell morphology, African green monkey kidney (Vero B) cells; format: functional; conditions: Chlorocebus sabaeus
[4] = tested on: Vero; assay: Concentration (MIC), which is required to reduce virus-induced cytopathogenicity in African green monkey kidney (Vero B) cells against Reo-virus-1; format: functional; conditions: Chlorocebus sabaeus
[5] = Concentration (MCC) required to cause a microscopically detectable alteration of normal cell morphology, in Primary rabbit kidney (PRK) cells; format: functional, Oryctolagus cuniculus
[6] = tested on: Vero; assay: Concentration (MIC), which is required to reduce virus-induced cytopathogenicity in African green monkey kidney (Vero B) cells against Coxsackie virus-B4; format: functional, Chlorocebus sabaeus
[7] = Concentration (MIC), required to reduce virus-induced cytopathogenicity in Primary rabbit kidney (PRK ) cells against Vesicular stomatitis virus type 1; format: functional; conditions: Oryctolagus cuniculus
[8] = tested on: Vero; assay: Concentration (MIC), which is required to reduce virus-induced cytopathogenicity in African green monkey kidney (Vero B) cells against forest virus; format: functional; conditions: Chlorocebus sabaeus
[9] = tested on: HeLa; assay: Concentration (MCC) required to cause a microscopically detectable alteration of normal cell morphology, in HeLa cells; format: functional; conditions: Homo sapiens
[10] = tested on: HeLa; assay: Concentration (MIC), which is required to reduce virus-induced cytopathogenicity in HeLa cells against Polio virus type-1; format: functional; conditions: Homo sapiens
[11] = Concentration (MIC)required to reduce virus-induced cytopathogenicity in Primary rabbit kidney (PRK ) cells against HSV-2 with strain G; format: functional; conditions: Oryctolagus cuniculus
[12] = Concentration (MIC), which is required to reduce virus-induced cytopathogenicity in Primary rabbit kidney (PRK ) cells against Vaccinia virus; format: functional; conditions: Oryctolagus cuniculus
[13] = Concentration (MIC)required to reduce virus-induced cytopathogenicity in Primary rabbit kidney (PRK ) cells against HSV-1 with a strain KOS; format: functional; conditions: Oryctolagus cuniculus
[14] = Concentration (MIC), required to reduce virus-induced cytopathogenicity in Primary rabbit kidney (PRK ) cells against Vesicular stomatitis virus type 2; format: functional; conditions: Oryctolagus cuniculus
[15] = Concentration (MIC)required to reduce virus-induced cytopathogenicity in Primary rabbit kidney (PRK ) cells against HSV-2 with a strain G; format: functional; conditions: Oryctolagus cuniculus
[16] = tested on: Vero; assay: Concentration (MIC), which is required to reduce virus-induced cytopathogenicity in African green monkey kidney (Vero B) cells against para-influenza virus-3; format: functional; conditions: Chlorocebus sabaeus
[17] = tested on: L1210; assay: Concentration required to reduce the viability of Murine leukemia L1210 cells; format: functional, cell-based; conditions: Mus musculus
[18] = Concentration (MIC), required to reduce virus-induced cytopathogenicity in HeLa cells of Primary rabbit kidney (PRK ) cells against Vesicular stomatitis virus type 2; format: functional; conditions: Oryctolagus cuniculus
[19] = tested on: MT4; assay: Concentration required to reduce the viability of Human T-lymphoblast MT-4 cells; format: functional, cell-based
[20] = tested on: HeLa; assay: Concentration (MIC), which is required to reduce virus-induced cytopathogenicity in HeLa cells o against Polio virus type-1; format: functional; conditions: Homo sapiens
[21] = tested on: MOLT-4F; assay: Concentration required to reduce the viability of Human T-lymphoblast Molt/4F cells; format: functional, cell-based
[22] = tested on: Raji; assay: Concentration required to reduce the viability of Human B-lymphoblast Raji cells; format: functional, cell-based
[23] = Concentration (MIC), which is required to reduce virus-induced cytopathogenicity in HeLa cells of Primary rabbit kidney (PRK ) cells against DNA viruses including Vaccinia virus; format: functional; conditions: Oryctolagus cuniculus
[24] = tested on: Vero; assay: Concentration (MIC), which is required to reduce virus-induced cytopathogenicity in African green monkey kidney (Vero B) cells against RNA viruses including Coxsackie virus-B4; format: functional; conditions: Chlorocebus sabaeus
[25] = tested on: HeLa; assay: Concentration (MIC), which is required to reduce virus-induced cytopathogenicity in Primary rabbit kidney (PRK ) cells against Polio virus type-1; format: functional; conditions: Homo sapiens
[26] = Concentration (MIC)required to reduce virus-induced cytopathogenicity in Primary rabbit kidney (PRK ) cells against including HSV-2 with a strain G; format: functional; conditions: Oryctolagus cuniculus
[27] = Concentration (MIC), required to reduce virus-induced cytopathogenicity in HeLa cells of Primary rabbit kidney (PRK ) cells against Vesicular stomatitis virus type 1; format: functional; conditions: Oryctolagus cuniculus
[28] = Chlorocebus sabaeus, read-out: MIC

Cc1cn([C@H]2O[C@H](CO)[C@@H](F)[C@H]2N=[N+]=[N-])c(=O)[nH]c1=O
MIC [1]: > 400 µg/mL | MIC [2]: > 400 µg/mL | MCC [3]: > 400 µg/mL | MIC [4]: > 400 µg/mL | MCC [5]: >400 µg/mL | MIC [6, 28]: > 400 µg/mL | MIC [7]: < 400 µg/mL | MIC [8]: > 400 µg/mL | MCC [9]: > 400 µg/mL | MIC [10]: > 400 µg/mL | MIC [11]: > 400 µg/mL | MIC [12]: > 400 µg/mL | MIC [13]: > 400 µg/mL | MIC [14]: > 400 µg/mL

Cc1cn([C@@H]2O[C@H](CO)[C@@H](F)[C@H]2N=[N+]=[N-])c(=O)[nH]c1=O
MIC [2]: > 400 µg/mL | MCC [3]: > 400 µg/mL | MIC [4]: > 400 µg/mL | MCC [5]: >400 µg/mL | MIC [15]: > 400 µg/mL | MIC [6, 28]: > 400 µg/mL | MIC [16]: > 400 µg/mL | MIC [7]: > 400 µg/mL | MIC [8]: > 400 µg/mL | MCC [9]: > 400 µg/mL | MIC [10]: > 400 µg/mL | MIC [12]: > 400 µg/mL | MIC [13]: > 400 µg/mL | MIC [14]: > 400 µg/mL

Nc1ccn([C@@H]2O[C@H](CO)[C@H](F)[C@H]2O)c(=O)n1
MIC [2]: 300 µg/mL (≈ 1220 µM) | MCC [3]: > 400 µg/mL | MIC [4]: 150 µg/mL (≈ 612 µM) | MCC [5]: >400 µg/mL | MIC [15]: > 400 µg/mL | IC50 [17]: 39 µg/mL (≈ 159 µM) | MIC [6]: 300 µg/mL (≈ 1220 µM) | MIC [6, 28]: 150 µg/mL (≈ 612 µM) | MIC [16]: > 400 µg/mL | MIC [7]: > 400 µg/mL | MIC [8]: > 400 µg/mL | MIC [18]: 300 µg/mL (≈ 1220 µM) | IC50 [19]: 7.9 µg/mL (≈ 32.2 µM) | MCC [9]: > 400 µg/mL | MIC [20]: 150 µg/mL (≈ 612 µM) | MIC [12]: > 400 µg/mL | MIC [13]: > 400 µg/mL | IC50 [21]: 65 µg/mL (≈ 265 µM) | IC50 [22]: 98 µg/mL (≈ 400 µM)

O=c1ccn([C@@H]2O[C@H](CO)[C@@H](F)[C@H]2O)c(=O)[nH]1
MIC [2]: 300 µg/mL (≈ 1220 µM) | MCC [3]: > 400 µg/mL | MIC [4]: 150 µg/mL (≈ 609 µM) | MCC [5]: >400 µg/mL | MIC [15]: > 400 µg/mL | IC50 [17]: > 100 µg/mL | MIC [6, 28]: 300 µg/mL (≈ 1220 µM) | MIC [16]: > 400 µg/mL | MIC [23]: > 400 µg/mL | MIC [7]: > 400 µg/mL | MIC [8]: > 400 µg/mL | MIC [24]: 300 µg/mL (≈ 1220 µM) | IC50 [19]: 6.9 µg/mL (≈ 28 µM) | MCC [9]: > 400 µg/mL | MIC [10]: 150 µg/mL (≈ 609 µM) | MIC [13]: > 400 µg/mL | IC50 [21]: > 100 µg/mL | MIC [14]: > 400 µg/mL | IC50 [22]: > 100 µg/mL

[N-]=[N+]=NC1C(F)C(CO)OC1n1ccc(N)nc1=O (centres undefined)
MIC [2]: > 400 µg/mL | MCC [3]: > 400 µg/mL | MIC [4]: > 400 µg/mL | MCC [5]: >400 µg/mL | MIC [15]: > 400 µg/mL | MIC [6, 28]: > 400 µg/mL | MIC [16]: > 400 µg/mL | MIC [7]: > 300 µg/mL | MIC [8]: > 400 µg/mL | MCC [9]: > 400 µg/mL | MIC [10]: > 400 µg/mL | MIC [12]: > 400 µg/mL | MIC [13]: > 400 µg/mL | MIC [14]: > 400 µg/mL

Nc1nc(O)c2ncn([C@@H]3O[C@H](CO)[C@@H](F)[C@H]3O)c2n1
MIC [2]: 40 µg/mL (≈ 140 µM) | MCC [3]: 400 µg/mL | MIC [4]: > 200 µg/mL | MCC [5]: 200 µg/mL | MIC [15]: > 100 µg/mL | IC50 [17]: 5 µg/mL (≈ 17.5 µM) | MIC [16]: > 100 µg/mL | MIC [7]: > 200 µg/mL | MIC [8]: 40 µg/mL (≈ 140 µM) | IC50 [19]: > 100 µg/mL | MCC [9]: > 400 µg/mL | MIC [12]: 10 µg/mL (≈ 35.1 µM) | MIC [13]: > 100 µg/mL | IC50 [21]: 75 µg/mL (≈ 263 µM) | MIC [14]: > 200 µg/mL | MIC [25]: 150 µg/mL (≈ 526 µM) | IC50 [22]: 29 µg/mL (≈ 102 µM)

[N-]=[N+]=NC1C(F)C(CO)OC1n1cnc2c(N)ncnc21 (centres undefined)
MIC [2]: > 200 µg/mL | MCC [3]: > 400 µg/mL | MIC [4]: > 200 µg/mL | MCC [5]: >400 µg/mL | MIC [6]: >200 µg/mL | MIC [6, 28]: 300 µg/mL (≈ 1020 µM) | MIC [16]: > 200 µg/mL | MIC [8]: > 200 µg/mL | MCC [9]: > 400 µg/mL | MIC [10]: > 200 µg/mL | MIC [26]: > 200 µg/mL | MIC [12]: 300 µg/mL (≈ 1020 µM) | MIC [27]: 300 µg/mL (≈ 1020 µM) | MIC [13]: > 400 µg/mL | MIC [14]: > 200 µg/mL

Nc1ncnc2c1ncn2[C@@H]1O[C@H](CO)[C@@H](F)[C@H]1O
MIC [2]: 4 µg/mL (≈ 14.9 µM) | MCC [3]: 40 µg/mL | MIC [4]: 1 µg/mL (≈ 3.71 µM) | MCC [5]: >40 µg/mL | MIC [15]: > 10 µg/mL | IC50 [17]: 1.6 µg/mL (≈ 5.94 µM) | MIC [16]: > 4 µg/mL | MIC [8]: 4 µg/mL (≈ 14.9 µM) | IC50 [19]: 0.22 µg/mL (≈ 0.817 µM) | MCC [9]: 40 µg/mL | MIC [10]: 4 µg/mL (≈ 14.9 µM) | MIC [12]: 2 µg/mL (≈ 7.43 µM) | MIC [27]: > 40 µg/mL | MIC [13]: > 10 µg/mL | IC50 [21]: 28 µg/mL (≈ 104 µM) | MIC [14]: > 10 µg/mL | IC50 [22]: 3.9 µg/mL (≈ 14.5 µM)
